Measured values published in US8481586B2, “Pyrrolo[2,3-a] carbazoles and use thereof as PIM kinase inhibitors” (Centre National de la Recherche Scientifique, priority 2008, dated 2013).

Experiments:
PIM-1 = PIM-1 (Homo sapiens (Human), UniProt P11309); assay: inhibition test on kinase PIM-1 (residual activity, IC50); format: biochemical; settings: for remaining activity at 10 µM: read-out: Percentage of residual activity PIM-1; for IC50: ten concentrations, dose-inhibition curve
Excerpt: (§1) MKK1, ERK 1, ERK 2, JNK1, JNK2, JNK3, p38a MAPK, p38b MAPK, p38g MAPK, p38s MAPK, ERK8, RSK1, RSK2, PDK1, PKBa, PKBb, SGK1, S6K1, PKA, ROCK2, PRK2, PKCa, PKC zeta, PKD1, MSK1, MNK1, MNK2, MAPKAP-K2, MAPKAP-K3, PRAK, CAMKKa, CAMKKb, CAMK1, SmMLCK, PHK, CHK1, CHK2, GSK3b, CDK2/cyclin A, PLK1, PLK1 (Okadaic acid), Aurora B, Aurora C, AMPK, MARK3, BRSK2, MELK, CK1, CK2, NEK2a, NEK6, NEK7, IKKb, PIM-1, PIM-2, PIM-3, SRPK1, MST2, EF2K, HIPK2, HIPK3, PAK-4, PAK5, PAK6, Src, Lck, CSK.
(§2) The results in terms of residual activity of the kinases after being placed in contact with the compounds of Examples 2, 3 and 5, at a concentration of 10 μM (10 μmol/L), are shown in Table 1 below.
(§3) The higher the residual activity of the kinase tested, the lower the inhibitory activity of the test compounds on the tested kinase.
(§4) The compounds according to the invention were then tested on the kinases PIM-1, PIM-2 and PIM-3.
(§5) The results in terms of percentage of residual activity after placing the compounds according to the invention in contact with each of the kinases PIM-1, PIM-2 and PIM-3 are given in Table 2 below.
(§6) The higher the residual activity, the lower the inhibitory activity of the test compounds.
(§7) The mean inhibitory concentrations (IC50) of certain preferred compounds of the invention were determined in the following manner: the IC50 values were measured after performing the inhibition tests on the kinases PIM-1, PIM-2 and PIM-3 at ten different concentrations for each test compound, and the IC50 value was determined from the dose-inhibition curves obtained.

PIM-2 = PIM-2 (Homo sapiens (Human), UniProt Q9P1W9); assay: inhibition test on kinase PIM-2 (residual activity, IC50); format: biochemical; settings: product at 10 μmol/L, Table 2, N.I. = not inhibitory; for remaining activity at 10 µM: read-out: Percentage of residual activity PIM-2
Excerpt: as §1, §2, §3, §4, §5, §6, §7

PIM-3 = PIM-3 (Homo sapiens (Human), UniProt Q86V86); assay: inhibition test on kinase PIM-3 (residual activity, IC50); format: biochemical; settings: for remaining activity at 10 µM: product at 10 μmol/L, Table 2, N.I. = not inhibitory, read-out: Percentage of residual activity PIM-3; for IC50: ten concentrations, dose-inhibition curve
Excerpt: as §1, §2, §3, §4, §5, §6, §7

[1] = product at 10 μmol/L, Table 2, N.I. = not inhibitory

Chain of PIM-2 (Q9P1W9 whole entry, species assumed): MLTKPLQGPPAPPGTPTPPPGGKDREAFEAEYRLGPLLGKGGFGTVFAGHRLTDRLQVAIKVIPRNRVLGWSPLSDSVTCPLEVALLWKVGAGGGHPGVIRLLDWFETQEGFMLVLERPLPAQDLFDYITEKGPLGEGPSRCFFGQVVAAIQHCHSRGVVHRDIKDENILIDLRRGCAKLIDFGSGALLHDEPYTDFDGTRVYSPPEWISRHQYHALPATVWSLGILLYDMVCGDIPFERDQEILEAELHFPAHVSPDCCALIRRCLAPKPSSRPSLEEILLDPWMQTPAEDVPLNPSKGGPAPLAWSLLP
Chain of PIM-1 (P11309 whole entry, species assumed): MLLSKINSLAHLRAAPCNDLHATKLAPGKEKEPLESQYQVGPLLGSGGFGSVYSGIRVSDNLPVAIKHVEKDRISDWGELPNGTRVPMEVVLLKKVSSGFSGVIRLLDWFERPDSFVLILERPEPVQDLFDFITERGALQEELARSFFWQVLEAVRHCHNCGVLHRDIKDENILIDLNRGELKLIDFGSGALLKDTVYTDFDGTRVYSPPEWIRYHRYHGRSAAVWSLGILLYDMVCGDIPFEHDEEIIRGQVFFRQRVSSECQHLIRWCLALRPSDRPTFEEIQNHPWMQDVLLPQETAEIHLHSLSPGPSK

Row | Compound | remaining activity at 10 µM (PIM-1; [1]) | remaining activity at 10 µM (PIM-2) | remaining activity at 10 µM (PIM-3) | melting point | IC50 (PIM-1) | IC50 (PIM-3) | Percentage of residual activity PIM-1 (PIM-1; [1]) | Percentage of residual activity PIM-2 (PIM-2)
1 | O=Cc1c[nH]c2c1ccc1c3ccc(Br)cc3[nH]c12 [Example 43, 8-bromo-1,10-dihydropyrrolo[2,3-a]carbazole-3-carbaldehyde] | 44% | 39% | 15% | > 250 °C | – | – | – | –
2 | O=Cc1c[nH]c2c1ccc1c3cc(-c4ccc(F)cc4F)ccc3[nH]c12 [Example 40, 7-(2,4-difluorophenyl)-1,10-dihydropyrrolo[2,3-a]-carbazole-3-carbaldehyde] | 6% | 32% | 6% | – | 660 nM | 200 nM | – | –
3 | Fc1cccc2c1[nH]c1c2ccc2cc[nH]c21 [Example 29, 9-fluoro-1,10-dihydropyrrolo[2,3-a]carbazole] | – | – | 43% | – | – | – | N.I. | N.I.
4 | CCN(CC)CC(O)c1c[nH]c2c1ccc1c3ccccc3[nH]c12 (centres unmarked) [Example 12, 1-(1,10-dihydropyrrolo[2,3-a]carbazol-3-yl)-2-diethylaminoethanol] | 24% | 53% | 16% | – | – | – | – | –
5 | COc1cccc(-c2ccc3[nH]c4c(ccc5c(C=O)c[nH]c54)c3c2)c1 [Example 36, 7-(3-methoxyphenyl)-1,10-dihydropyrrolo[2,3-a]-carbazole-3-carbaldehyde] | 17% | 31% | 12% | – | – | – | – | –
6 | FC(F)(F)c1cccc2c1[nH]c1c2ccc2cc[nH]c21 [Example 34, 9-(trifluoromethyl)-1,10-dihydropyrrolo[2,3-a]carbazole] | 85% | – | 45% | – | – | – | – | N.I.
7 | CCN(CC)CCc1c[nH]c2c1ccc1c3ccccc3[nH]c12 [Example 11, 2-(1,10-dihydropyrrolo[2,3-a]carbazol-3-yl)-N,N-diethylethanamine] | 39% | 78% | 25% | – | – | – | – | –

Next, values leading:

Row | remaining activity at 10 µM (PIM-1; [1]) | remaining activity at 10 µM (PIM-2) | remaining activity at 10 µM (PIM-3) | melting point | IC50 (PIM-1) | IC50 (PIM-3) | Percentage of residual activity PIM-1 (PIM-1; [1]) | Percentage of residual activity PIM-2 (PIM-2) | Compound
8 | 51% | 52% | 61% | – | – | – | – | – | O=S(=O)(c1ccccc1)n1ccc2ccc3c4cc(Br)ccc4[nH]c3c21 [Example 14, 1-benzenesulfonyl-7-bromo-1,10-dihydropyrrolo-[2,3-a]carbazole]
9 | 35% | 50% | 21% | – | – | – | – | – | OCCc1c[nH]c2c1ccc1c3ccccc3[nH]c12 [Example 9, 2-(1,10-dihydropyrrolo[2,3-a]carbazol-3-yl)ethanol]
10 | 28% | 52% | 23% | – | – | – | – | – | O=Cc1c[nH]c2c1ccc1c3cc(-c4ccc(C(F)(F)F)cc4)ccc3[nH]c12 [Example 41, 7-(4-trifluoromethylphenyl)-1,10-dihydropyrrolo-[2,3-a]carbazole-3-carbaldehyde]
11 | 6% | 57% | 6% | – | 570 nM | 40 nM | – | – | O=Cc1c[nH]c2c1ccc1c3cc(Br)ccc3[nH]c12 [Example 16, 7-bromo-1,10-dihydropyrrolo[2,3-a]carbazole-3-carbaldehyde]
12 | 74% | 93% | 15% | – | – | – | – | – | Brc1ccc2c(c1)[nH]c1c2ccc2cc[nH]c21 [Example 25, 8-bromo-1,10-dihydropyrrolo[2,3-a]carbazole]
13 | 28% | 47% | 18% | – | – | – | – | – | OCc1c[nH]c2c1ccc1c3ccccc3[nH]c12 [Example 4, (1,10-dihydropyrrolo[2,3-a]carbazol-3-yl)methanol]
14 | 8% | 34% | 6% | – | – | – | – | – | O=Cc1c[nH]c2c1ccc1c2[nH]c2cc(Cl)cc(Cl)c21 [Example 48, 6,8-dichloro-1,10-dihydropyrrolo[2,3-a]carbazole-3-carbaldehyde]
